The values that follow come from article PMC6429087, “Identification of Leishmania major UDP-Sugar Pyrophosphorylase Inhibitors Using Biosensor-Based Small Molecule Fragment Library Screening” (Molecules, 2019).

As a reminder, the inhibition is the percentage by which the read-out fell short of the control. One may read the IC50 as the concentration that gives 50% inhibition. Higher therefore signals weaker potency. A word on the Kd: it is the constant that tells how readily two partners part at equilibrium. For orientation: Km means the concentration of substrate that gives half-maximal velocity. The term Vmax denotes the top rate of the reaction or transport when substrate is in excess. By kcat is commonly meant the maximal rate divided by the concentration of active sites. As usually defined, the kcat/Km is the second-order rate constant that governs catalysis at low substrate concentration.

For data set [1], the target named is T1, LmUSP (Leishmania major, UniProt D3G6S4). As to the kind of experiment: HPLC-based enzyme activity assay, LmUSP (UDP-Gal production). As to conditions: for inhibition at 500 µM: 500 µM compound, 10% DMSO, read-out: inhibition of LmUSP activity (UDP-Gal production) compared to DMSO control; for IC50: 95% confidence intervals, concentrations 7 µM to 500 µM. It is filed as biochemical. The method, then: (§1) Compounds were tested at a concentration of 500 µM with 20 nM enzyme in an high-performance liquid chromatography (HPLC)-based assay at a final reaction volume of 100 µL. The DMSO concentration in the reaction was kept at 10%. The reaction buffer consisted of 10 mM Tris-HCl pH 8.0, 2 mM MgCl2, 10 mM NaCl, 0.005 U of inorganic pyrophosphatase (Thermo Fisher Scientific, Vilnius, Lithuania), and 1 mM Dithiothreitol (DTT) (for LmUSP and LmUGP only). Protein was incubated with the inhibitors and UTP (final concentration of 0.8 mM in reaction) for 30 min at room temperature, before the addition of the reaction buffer. […] The samples were spun down and the supernatants applied to a Dionex CarboPac™ PA10 column (Thermo Fisher Scientific, Sunnyvale, CA, USA). UDP-Gal or UDP-Glc (products) were separated from UTP (substrate), UMP, and UDP (both, UTP hydrolysis products) with a NaCl gradient elution ranging from 0 to 500 mM NaCl over 13 min at 0.6 mL/min. Absorption of the uracil moiety was detected at 260 nm. The peak area of UDP-Gal or UDP-Glc in reactions with inhibitors was compared to a control containing 10% DMSO. Protein concentrations were calculated from the measured UV-absorbance at 280 nm (Implen NanoPhotometer N60, Implen GmbH, München, Germany), and the proteins’ individual extinction coefficients were calculated using the online ProtParam tool (http://web.expasy.org/protparam/). […] Corresponding IC50 values were calculated by using nonlinear regression analysis with variable slope, in GraphPad Prism version 4.00 (GraphPad Software, San Diego, CA, USA).

Another data set addresses LmUGP (Leishmania major, UniProt Q4QDU3). In words: HPLC-based enzyme activity assay, LmUGP (UDP-Glc production). In kind it is biochemical. As to conditions: for inhibition at 500 µM: 500 µM compound, 10% DMSO; for IC50: 95% confidence intervals, concentrations 7 µM to 500 µM. The method, then:
as §1

The target in the next data set is T2, hUGP (Homo sapiens, UniProt Q16851).
T2 construct: made in house
T2 sequence (Q16851 1-508): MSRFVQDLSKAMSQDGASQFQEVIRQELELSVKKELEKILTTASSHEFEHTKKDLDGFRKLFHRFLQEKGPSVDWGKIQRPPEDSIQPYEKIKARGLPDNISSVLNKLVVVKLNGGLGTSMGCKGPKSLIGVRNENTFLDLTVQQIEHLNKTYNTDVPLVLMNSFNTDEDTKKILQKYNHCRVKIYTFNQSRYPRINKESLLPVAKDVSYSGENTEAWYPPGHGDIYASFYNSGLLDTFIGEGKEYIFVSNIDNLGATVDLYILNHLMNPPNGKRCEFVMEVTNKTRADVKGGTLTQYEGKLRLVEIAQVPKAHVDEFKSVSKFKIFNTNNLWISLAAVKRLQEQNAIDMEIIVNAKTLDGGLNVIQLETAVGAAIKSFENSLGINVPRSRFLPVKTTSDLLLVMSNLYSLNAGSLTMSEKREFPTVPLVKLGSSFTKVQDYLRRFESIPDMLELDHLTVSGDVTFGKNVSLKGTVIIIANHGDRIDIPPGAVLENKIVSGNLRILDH
As to the kind of experiment: HPLC-based enzyme activity assay, hUGP. It is filed as biochemical. As to conditions: 10% DMSO; for inhibition of hUGP (in words): 500 µM / high compound concentration; for decrease of hUGP activity: 500 µM compound. On the procedure:
as §1

Data set [2] addresses T1, LmUSP. In words: Bio-layer interferometry (BLI) binding to biotinylated LmUSP on Super Streptavidin biosensors. As to conditions: for Primary Binding Response: BLI primary screen, fragment 200 µM, 200 µM UTP in running buffer. On the procedure:
A vector containing the His(6)-biotin acceptor peptide (BAP) tag was kindly provided by Prof. Mike Ferguson from the University of Dundee. The BAP tag was inserted in the XbaI and NdeI restrictions site of the previously described pET22b-LmUSP [21]. The plasmid with insert was then transformed into the E. coli BL21(DE3) expression strain, and LmUSP was expressed and purified, as described previously. Exactly 2 mg of TEV protease was added to cleave off the His tag. The protein was dialyzed in 3 × 1 L Buffer C (50 mM TRIS pH 8.0, 150 mM NaCl, 10 mM MgCl2). A concentration of 100 µM D-Biotin, 500 µM ATP, and […] BirA enzyme were added to the protein and incubated for 18 hr for biotinylation. The sample was concentrated to 11 mL, using a Vivaspin 20 30 kDa PES centrifugal concentrator (Sartorious, Stonehouse, United Kingdom). The protein was loaded onto a Superdex 200 XK26/60 equilibrated with Buffer C on the AKTA Pure at 4 °C. The eluted monomeric protein was then concentrated to 0.98 mg/mL using a Vivaspin 20 30 kDa PES centrifugal concentrator, and used for loading onto super streptavidin (SSA) biosensors (Fortebio, Shanghai, China, Part No. 18-5057, Lot No. 1612162).
The loading response to SSA biosensors was measured to find the optimal protein concentration to be used for the screen. Briefly, biosensor tips were hydrated in assay buffer (50 mM Tris pH 8.0, 150 mM NaCl, 10 mM MgCl2) for a minimum of 5 min before being sequentially transferred to assay wells containing 1) assay buffer (60 s) to establish the baseline, 2) protein at 12.5, 25, or 50 µg/mL (900 s) to measure protein loading, and 3) assay buffer to assess the reversibility of protein binding to the sensor.
For fragment screening, 16 SSA biosensors were prepared by loading LmUSP (12.5 µg/mL) for 900 s; free streptavidin sites were then blocked with biocytin (10 µg/mL) for 120 s, and finally washed in buffer W (50 mM Tris pH 8.0, 150 mM NaCl, 10 mM MgCl2, 200 µM UTP) for 60 s. In parallel, another 16 SSA sensors were loaded with 10 µg/mL biocytin alone, which acts as a quenching agent to block streptavidin sites on the sensor surface, and then washed with buffer W. These were used as reference sensors.
Initial screening was performed with DDU fragment set (965 fragments) at a single point concentration of 200 µM. The assay consisted of a 60 s baseline step, a 60 s association step, and a 60 s dissociation step. The assay was repeated with the streptavidin blocked control biosensors. Response levels for each compound were calculated by baseline subtraction, and the subtraction of the reference responses from the LmUSP responses. From the initial putative hits, compounds were further validated in a […] concentration series using 3-fold dilutions of each fragment ranging from 500 µM to 2.05 µM. Data were processed, and kinetic parameters were calculated, using the ForteBio software. A visual inspection of curves alongside steady state fitting was used to identify fragments of interest.

Data set [3] deals with T1, LmUSP. As to conditions: read-out: Km value of UTP; cited from earlier work.
Data set [4] relates to O=P(O)(O)O[C@H]1O[C@H](CO)[C@H](O)[C@H](O)[C@H]1O. In words: purified protein, by the assay type. As to conditions: 0.8 mM UTP, 25 °C, pH 8.0.
Setting [5] is: BLI 7-point concentration series 2 µM to 500 µM, steady state fitting, read-out: Estimated KD.

Where two headings read alike, the source gives them in different places.

For the compound `O=C(Cn1c(=O)[nH]c2ccccc2c1=O)Nc1ccc2[nH]ccc2c1` [#4], at LmUSP [1], the inhibition at 500 µM is no less than 80% and the IC50 fell in the range of 135 to 175 µM. Moreover, at LmUGP, the inhibition at 500 µM was greater than 95% and the IC50 lay within 126 to 134 µM. Moreover, on hUGP, the “inhibition of hUGP (in words)” value is on record as “little effect” and the “decrease of hUGP activity” value was “less than 20%”.
For `CC(Cc1c[nH]c2ccccc12)NC(=O)Cn1c(=O)[nH]c2ccccc2c1=O` (stereo not shown) [#8A], the IC50 at LmUSP [1] and at LmUGP was greater than 250 µM each time.
Consider `O=C(Cn1c(=O)[nH]c2ccccc2c1=O)NCCc1c[nH]c2ccc(Cl)cc12` [#8B], for which the half-maximal inhibitory concentration (IC50) lay within 47.2 to 66.4 µM against LmUSP [1] and 55.1 to 69.1 µM against LmUGP. For the same compound, the “inhibition of hUGP (in words)” value against hUGP is listed as “clear inhibition”.
As for `COc1ccc2[nH]cc(CCNC(=O)Cn3c(=O)[nH]c4ccccc4c3=O)c2c1` [#8C], the IC50 on LmUSP [1] and at LmUGP was greater than 250 µM each time.
In the case of `O=C(Cn1cnc2ccccc2c1=O)NCCc1c[nH]c2ccc(Cl)cc12` [#8D], the IC50 was 170 to 195 µM against LmUSP [1] and 193 to 242 µM against LmUGP. The “inhibition of hUGP (in words)” value against hUGP is “clear inhibition”.
In the same order, the values of `O=C(Cn1cnc2ccccc2c1=O)NCCc1c[nH]c2ccc(F)cc12` [#8E] are 40.4 to 46.3 µM, 38 to 46.8 µM and “clear inhibition”.
On to `O=C(Cn1c(=O)[nH]c2ccccc2c1=O)NCCc1c[nH]c2ccccc12` [#8], for which, at LmUSP [1], the inhibition at 500 µM was no less than 80% and the IC50 was in the range of 78.1 to 107 µM. At LmUGP, this compound had an inhibition at 500 µM greater than 95% and an IC50 of 120 to 151 µM. At hUGP, the “inhibition of hUGP (in words)” value was “little effect” and the “decrease of hUGP activity” value is on record as “less than 20%”.
Take `O=C(O)Cc1cccc(C(F)(F)F)c1` [DDD00095351]: the Kd on LmUSP [2] (setting [5]) was 83.3 µM. Besides, the “Primary Binding Response” value at LmUSP [2] is listed as 0.127.
On the same counts, the results for `COCCNC(=O)n1c(=O)oc2ccccc21` [DDD00102262] are 72.6 µM and 0.077.
On the same counts, the results for `Cn1c(=O)n(CCN)c(=O)c2ccccc21` [DDD00808259] are 67.6 µM and 0.1728.
In the same order, the values of `CC(C(=O)O)c1cccc(F)c1` (stereo not shown) [DDD01305586] are 60.1 µM and 0.1541.
With `O=c1ccn([C@@H]2O[C@H](COP(=O)(O)OP(=O)(O)OP(=O)(O)O)[C@@H](O)[C@H]2O)c(=O)[nH]1` [UTP, uridine triphosphate, reference compound], the Kd on LmUSP [2] turned out to be 89 µM. Moreover, on LmUSP [3], the Km is 100 µM.
On to “LmUSP F383R mutant (Leishmania major; F383R)”, for which, in data set [4] (other: LmUSP F383R), the Km turned out to be 364.00 ± 22.20 µM, the Vmax is 14.8 µmol/min/mg, the kcat worked out at 17.3 s⁻¹ and the specificity constant (kcat/Km) came to 47000 M⁻¹ s⁻¹.
For the compound “LmUSP V199W mutant (Leishmania major; V199W)”, in data set [4] (other: LmUSP V199W), the Km stood at 1007.25 ± 18.03 µM, the Vmax is 76.8 µmol/min/mg, the kcat came out at 90.2 s⁻¹ and the kcat/Km came to 89000 M⁻¹ s⁻¹.
As for “LmUSP V330W mutant (Leishmania major; V330W)”, in data set [4] (other: LmUSP V330W), the Km came to 1255.00 ± 145.66 µM, the Vmax stood at 272 µmol/min/mg, the kcat turned out to be 319 s⁻¹ and the kcat/Km came to 255000 M⁻¹ s⁻¹.
Turning to “LmUSP V330W/F383R mutant (Leishmania major; F383R/V330W)”, in data set [4] (other: LmUSP V330W/F383R), the Km is reported as 276.45 ± 51.26 µM, the Vmax was found to be 21.8 µmol/min/mg, the kcat was 25.6 s⁻¹ and the kcat/Km stood at 93000 M⁻¹ s⁻¹.
Regarding LmUSP wild type (Leishmania major), in data set [4] (other: wild-type LmUSP), the Km is 529.20 ± 24.60 µM, the Vmax came to 184 µmol/min/mg, the kcat is 216 s⁻¹ and the kcat/Km was found to be 409000 M⁻¹ s⁻¹.
